pIC50: −log10 of the molar value.
Key:
[1] = test system: male spontaneously hypertensive rats; assay: Systolic blood pressure in male spontaneously hypertensive rats after oral administration; type: in vivo; conditions: groups of four rats; for Blood Pressure: systolic; for effect on systolic blood pressure (in words): oral administration
Description: Blood pressures were read prior to drug administration and at 1.5, 4 and 24 hours thereafter using a Decker Caudal Plethysmograph.

[2] = molecular target: T1, angiotensin converting enzyme (Oryctolagus cuniculus, UniProt P12822); assay: Inhibition of hippuryl-L-histidyl-L-leucine hydrolysis by angiotensin converting enzyme; type: biochemical; conditions: rabbit lung ACE, substrate HHL 5 mM, 37° C., 30 min
T1 construct: A crude angiotensin converting enzyme supernatant is obtained by blending 1 gm. of rabbit lung acetone powder; tissue PelFreez Biologicals; host or cells: rabbit lung acetone powder
T1 sequence (P12822 34-1310): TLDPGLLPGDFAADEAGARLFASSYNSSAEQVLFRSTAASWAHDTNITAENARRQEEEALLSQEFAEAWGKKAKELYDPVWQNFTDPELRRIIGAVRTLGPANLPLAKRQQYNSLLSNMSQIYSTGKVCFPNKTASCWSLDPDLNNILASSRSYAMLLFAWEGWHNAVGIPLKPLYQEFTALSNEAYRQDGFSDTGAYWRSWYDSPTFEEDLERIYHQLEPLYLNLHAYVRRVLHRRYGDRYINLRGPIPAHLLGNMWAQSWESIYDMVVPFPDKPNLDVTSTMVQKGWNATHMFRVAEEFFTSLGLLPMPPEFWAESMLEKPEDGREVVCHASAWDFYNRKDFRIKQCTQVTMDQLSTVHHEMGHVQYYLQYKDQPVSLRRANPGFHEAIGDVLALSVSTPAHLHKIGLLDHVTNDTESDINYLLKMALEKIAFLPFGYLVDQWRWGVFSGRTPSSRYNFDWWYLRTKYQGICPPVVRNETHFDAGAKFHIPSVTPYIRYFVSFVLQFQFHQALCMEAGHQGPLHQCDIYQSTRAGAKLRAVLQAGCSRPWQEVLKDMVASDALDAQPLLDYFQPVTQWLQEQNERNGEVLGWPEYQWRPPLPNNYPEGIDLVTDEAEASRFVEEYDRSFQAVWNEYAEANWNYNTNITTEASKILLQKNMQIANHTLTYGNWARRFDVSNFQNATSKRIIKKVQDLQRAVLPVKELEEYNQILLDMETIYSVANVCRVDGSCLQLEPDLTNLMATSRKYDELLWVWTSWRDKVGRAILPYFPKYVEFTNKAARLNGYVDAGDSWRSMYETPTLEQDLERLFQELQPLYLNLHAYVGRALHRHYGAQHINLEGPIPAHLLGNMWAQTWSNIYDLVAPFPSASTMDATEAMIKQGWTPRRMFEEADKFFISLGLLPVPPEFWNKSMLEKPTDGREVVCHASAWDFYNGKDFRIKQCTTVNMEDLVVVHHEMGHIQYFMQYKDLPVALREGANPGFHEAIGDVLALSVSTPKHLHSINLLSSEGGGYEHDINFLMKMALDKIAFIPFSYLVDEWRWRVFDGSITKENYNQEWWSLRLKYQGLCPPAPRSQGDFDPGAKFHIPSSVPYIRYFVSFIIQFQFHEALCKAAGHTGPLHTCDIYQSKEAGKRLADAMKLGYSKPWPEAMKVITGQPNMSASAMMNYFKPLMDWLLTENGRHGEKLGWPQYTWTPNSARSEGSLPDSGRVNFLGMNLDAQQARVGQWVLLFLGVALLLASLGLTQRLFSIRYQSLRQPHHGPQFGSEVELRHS
Description: The activity of the compounds of this invention was established by incubation of hippuryl-L-histidyl-L-leucine at 37° C. with angiotensin converting enzyme by the following procedure:
A crude angiotensin converting enzyme supernatant is obtained by blending 1 gm. of rabbit lung acetone powder (PelFreez Biologicals) with 35 ml. of 50 mM (buffered) potassium phosphate, pH 8.3 and centrifuging for 45 min. at 40,000×g.
The specific angiotensin converting enzyme substrate Hippuryl-L-histidyl-L-leucine (HHL-Sigma Chem. Co.) is prepared at 5 mM in 200 mM potassium phosphate buffer containing 757 mM NaCl at pH 8.3.
Incubation for the assay of HHL hydrolysis by angiotensin converting enzyme is carried out in a 37° C. gyrorotary incubator in disposable 13×100 mm tubes. Each 0.25 ml assay mixture contains the following components at the final concentrations: potassium phosphate buffer, 100 mM; NaCl, 300 mM; HHL, 5 mM; and enzyme 0.15 ml (10 mU approx.) added last to initiate the reaction. Zero time controls have 0.25 ml of 2N HCl added before the enzyme. The timed reactions are terminated with acid at 30 min. similarly and the hippuric acid freed from substrate is extracted into 1.5 ml of ethyl acetate layer is transferred to a clean tube. […]
The hippuric acid is resuspended in 1.0 ml of water, the absorbance at […] is determined, and the amount present is calculated from a standard curve. […]

Row | Compound | Blood Pressure ([1]; 150 mg/kg PO, 1.5 hours) [mmHg] | Blood Pressure ([1]; 150 mg/kg PO, 4 hours) [mmHg] | effect on systolic blood pressure (in words) [1] | pIC50 [2] | Blood Pressure ([1]; 50 mg/kg PO, 1.5 hours) [mmHg] | Blood Pressure ([1]; 50 mg/kg PO, 4 hours) [mmHg] | Blood Pressure ([1]; 50 mg/kg PO, 24 hours) [mmHg]
1 | NCCCC[C@H](NC(CCc1ccccc1)C(=O)O)C(=O)N(CC(=O)O)c1ccccc1 (mixture of isomers) [Example 2, N^α -(DL-1-carboxy-3-phenylpropyl)-L-lysyl-N-phenylglycine] | 196 | 194 | reduce systolic blood pressure | 6.84 | – | – | –
2 | N^α -(DL-1-carboxy-3-phenylpropyl)-L-lysyl-N-p-methoxyphenylglycine [Example 3] | – | – | reduce systolic blood pressure | – | 183 | 181 | 204

Source: patent publication US4487716A, “N-(1-Carboxy-3-phenylpropyl)-dipeptides” (American Home Products Corporation, priority 1982, dated 1984)
